Measured values: ChEMBL document CHEMBL3351737, “Design, synthesis and exploring the quantitative structure-activity relationship of some antioxidant flavonoid analogues” (Bioorg Med Chem Lett, 2014)
pIC50: −log10 of the molar value.

Assay: Antioxidant activity assessed as DPPH radical scavenging activity incubated at room temperature for 20 mins by UV-visible spectrophotometry

Compound | pIC50 (DPPH radical (cell-free)) | pIC50
O=C(/C=C\C=C/c1ccc2c(c1)OCO2)N1CCCCC1 | 1.04 | –
O=C(/C=C/C=C/c1ccccc1)c1ccccc1 | 0.95 | –
O=C(/C=C/c1ccc(Cl)cc1)c1ccccc1O | 2.21 | –
COc1ccc(/C=C/C(=O)c2ccccc2O)cc1 | 0.72 | –
O=C(/C=C/C=C/c1ccccc1)c1ccccc1O | 2.15 | –
CC(=O)c1ccccc1O | 0.81 | –
CC(C)(C)c1ccc(/C=C/C(=O)c2ccccc2O)cc1 | 1.77 | –
O=C(/C=C/c1ccco1)c1ccccc1O | 2.37 | –
O=C(/C=C/c1ccccc1)c1ccccc1O [2'-HYDROXYCHALCONE] | 1.11 | –
O=C1O[C@H]([C@@H](O)CO)C(O)=C1O [ASCORBIC ACID] | 4.48 | –
COc1ccc(O)c(C(C)(C)C)c1.COc1ccc(O)cc1C(C)(C)C [BUTYLATED HYDROXYANISOLE] | 4.72 | –
O=C/C=C/c1ccccc1 [CINNAMALDEHYDE] | 0.43 | –
O=C(O)/C=C/c1ccccc1 [CINNAMIC ACID] | -0.24 | –
O=C(O)/C=C/c1ccc(O)cc1 [COUMARIC ACID] | 1.73 | –
O=Cc1ccco1 [FURFURAL] | 0.67 | –
O=C(O)c1cc(O)c(O)c(O)c1 [GALLIC ACID] | 4.96 | –
COc1c(-c2ccccc2)oc2c(ccc3occc32)c1=O [KARANJIN] | 2.37 | –
COc1c(C(=O)/C=C(\O)c2ccccc2)ccc2occc12 [PONGAMOL] | 1.93 | –
O=Cc1ccccc1O [SALICYLADEHYDE] | 1.01 | –
O=C(O)c1ccccc1O [SALICYLIC ACID] | – | 0.56
Cc1c(C)c2c(c(C)c1O)CCC(C)(C(=O)O)O2 (stereo unspecified) [TROLOX] | 4.92 | –

The next lines start with results.

pIC50 (DPPH radical (cell-free)) | Compound | pIC50
4.41 | O=c1c(O)c(/C=C/c2ccccc2)oc2ccccc12 | –
4.03 | O=c1c(O)c(-c2ccc3c(c2)OCO3)oc2ccccc12 | –
3.14 | O=c1cc(-c2ccc(Cl)cc2)oc2ccccc12 | –
2.20 | Cc1ccc(-c2cc(=O)c3ccccc3o2)cc1 | –
4.66 | CN(C)c1ccc(-c2oc3ccccc3c(=O)c2O)cc1 | –
3.18 | O=c1c(O)c(-c2ccc(Cl)cc2)oc2ccccc12 | –
4.47 | O=c1c(O)c(-c2ccco2)oc2ccccc12 | –
1.35 | CC(C)(C)c1ccc(-c2cc(=O)c3ccc(O)cc3o2)cc1 | –
3.15 | CC(C)(C)c1ccc(-c2oc3cc(O)cc(O)c3c(=O)c2O)cc1 | –
3.34 | CC(C)(C)Oc1ccc(-c2oc3cc(O)cc(O)c3c(=O)c2O)cc1 | –
3.21 | CN(C)c1ccc(-c2oc3cc(O)cc(O)c3c(=O)c2O)cc1 | –
1.96 | CC(C)c1ccc(-c2oc3ccccc3c(=O)c2O)cc1 | –
1.53 | CC(C)c1ccc(-c2cc(=O)c3c(O)cc(O)cc3o2)cc1 | –
1.56 | O=c1c(O)c(-c2ccc(Cl)cc2)oc2cc(O)cc(O)c12 | –
3.94 | COc1ccc(-c2oc3ccccc3c(=O)c2O)cc1 | –
2.11 | Cc1ccc(/C=C/C(=O)c2ccccc2O)cc1 | –
0.17 | COc1ccc(-c2cc(=O)c3ccccc3o2)cc1 [4'-METHOXYFLAVONE] | –
3.41 | O=c1c(O)c(-c2ccccc2)oc2ccccc12 [FLAVONOL] | –
3.72 | O=c1c(O)c(-c2ccccc2)oc2cc(O)cc(O)c12 [GALANGIN] | –
1.23 | O=C1C[C@@H](c2ccccc2)Oc2cc(O)cc(O)c21 [PINOCEMBRIN] | –
